According to paper PMC6630832, “3-Vinylazetidin-2-Ones: Synthesis, Antiproliferative and Tubulin Destabilizing Activity in MCF-7 and MDA-MB-231 Breast Cancer Cells” (Pharmaceuticals, 2019):

Assays:
[1] = system: human MCF-7 breast cancer cells; test: Cell viability (Alamar Blue) antiproliferative assay in MCF-7 cells; assay type: cell-based; settings: Homo sapiens, MCF7, 72 h, human MCF-7 breast cancer cells; 72 h; mean ± SEM; read-out: Antiproliferative Activity IC50
Method: (§1) The human breast carcinoma cell line MCF-7, was purchased from the European Collection of Animal Cell Cultures (ECACC) and was cultured in Eagle’s minimum essential medium with 10% fetal bovine serum, 2 mM L-glutamine and 100 μg/mL penicillin/streptomycin. The medium was supplemented with 1% non-essential amino acids. The human breast carcinoma cell line MDA-MB-231 was purchased from the European Collection of Animal Cell Cultures (ECACC). MDA-MB-231 cells were maintained in Dulbecco’s modified Eagle’s medium (DMEM) supplemeted with 10% (v/v) fetal bovine serum, 2 mM L-glutamine and 100 μg/mL penicillin/streptomycin (complete medium). All media contained 100 U/mL penicillin and 100 μg/mL streptomycin. Triple negative breast cancer Hs578T cells and its invasive variant Hs578Ts(i)8 were obtained as a kind gift from Dr. Susan McDonnell, School of Chemical and Bioprocess Engineering, University College Dublin and were cultured in Dulbecco’s Modified Eagle’s Media (DMEM) with GlutaMAX^TM-I, with the same supplement as for MDA-MB-231 cells in the absence of non-essential amino acids. HEK-293T normal epithelial embryonic kidney cells were cultured in Dulbecco’s Modified Eagle’s Medium (DMEM) with GlutaMAX^TM-I in the absence of non-essential amino acids. K562 and HL-60 cells were originally obtained from the European Collection of Cell Cultures (Salisbury, UK).The K562 cells were derived from a patient in the blast crisis stage of CML HL-60 cells were derive from a patient with acute myeloid leukaemia. Cells were cultured in RPMI-1640 Glutamax medium supplemented with 10% FCS media, and 100 μg/mL penicillin/streptomycin. Cells were maintained at 37 °C in 5% CO2 in a humidified incubator. All cells were sub-cultured three times/week (adherent cells by trypsinisation).
(§2) Cells were seeded at a density of 5 × 10^3 cells/well (MCF-7), in triplicate in 96-well plates. After 24 h, cells were then treated with either medium alone, vehicle [1% ethanol (v/v)] or with serial dilutions of CA-4 or β-lactam analogue. Cell viability for MCF-7 and MDA-MB-231 was analysed using the Alamar Blue assay (Invitrogen Corp, Thermo Fisher Scientific, 168 Third Avenue, Waltham, MA, USA) according to the manufacturer’s instructions. After 72 h, Alamar Blue [10% (v/v)] was added to each well and plates were incubated for 3–5 h at 37 °C in the dark. Fluorescence was read using a 96-well fluorimeter with excitation at 530 nm and emission at 590 nm. Results were expressed as percentage viability relative to vehicle control (100%). Dose response curves were plotted and IC50 values (concentration of drug resulting in 50% reduction in cell survival) were obtained using the commercial software package Prism (GraphPad Software, Inc., 2365 Northside, Suite 560, San Diego, CA, USA). Experiments were performed in triplicate on at least three separate occasions.

[2] = system: human MDA-MB-231 breast cancer cells; test: Cell viability (Alamar Blue) antiproliferative assay in MDA-MB-231 cells; assay type: cell-based; settings: mean ± SEM
Method: as §1, §2

[3] = system: MCF-7 cells; test: Lactate dehydrogenase (LDH) assay for cytotoxicity; assay type: cell-based; settings: Homo sapiens, MCF7, 72 h, read-out: cell death (LDH assay)
Method: Cytotoxicity was determined using the CytoTox 96 non-radioactive cytotoxicity assay (Promega Corporation; 2800 Woods Hollow Road, Madison, WI, USA) following the manufacturer’s protocol. Briefly, MCF-7 cells were seeded in 96-well plates, incubated for 24 hr and then treated with test compounds (7d, 7h, 7i, 7q, 7r, 7u, 7t, 10d, 10f, 12) as described in the cell viability assay above. After 72 h, 20 μL of ‘lysis solution (10X)’ was added to control wells and the plate was incubated for a further 1 hr to ensure 100% death. 50 μL of supernatant was carefully removed from each well and transferred to a new 96-well plate. 50 μL of reconstituted ‘substrate mix’ was added and the plate was placed in the dark at room temperature for 30 min. After this period, 50 μL of ‘stop solution’ was added to each well and the absorbance was read at a wavelength of 490 nm using a Dynatech MR5000 plate reader. The percentage cell death at 10 μM was calculated.

[4] = target: T1, purified bovine tubulin (Bos taurus, UniProt P81947+Q6B856); test: Tubulin polymerization assay; assay type: biochemical; settings: 10 μM; for vmax of tubulin polymerization: absorbance at 340 nm, 37 °C
T1 construct: Purified (>99%) bovine brain tubulin (3 mg/mL); purchased Cytoskeleton Inc. BK006; host or cells: bovine brain (tissue-purified)
Method: The assembly of purified bovine tubulin was monitored using a kit, BK006, purchased from Cytoskeleton Inc., 1830 S Acoma St, Denver, CO, 80223, USA.. The assay was carried out in accordance with the manufacturer’s instructions in the tubulin polymerisation assay kit manual using the standard assay conditions. The values reported represent the average values from two independent assays. Purified (>99%) bovine brain tubulin (3 mg/mL) in a buffer consisting of 80 mM PIPES (pH 6.9), 0.5 mM EGTA, 2 mM MgCl2, 1 mM GTP and 10% glycerol was incubated at 37 °C in the presence of either vehicle (2% (v/v) ddH2O) or compounds 7h, 7i, 7s, 7t (initially 10 µM in EtOH); CA-4 and Paclitaxel were used as controls. Light is scattered proportionally to the concentration of polymerised microtubules in the assay. Therefore, tubulin assembly was monitored turbidimetrically at 340 nm at 37 °C in a Spectramax 340 PC spectrophotometer (Molecular Devices, 3860 N 1st St, San Jose, CA, USA). The absorbance was measured at 30 s intervals for 60 min.

[5] = system: NCI 60 cell line panel; test: NCI60 cell line screen (SRB assay), whole panel or sub-panels; assay type: cell-based; settings: mean over the total NCI 60 cell line panel
From the text: The results are summarized in Tables S3–S5, Supplementary Information.
Table S5: NCI 60 cell line mean screening results for selected compounds NCI Ref. Compound GI50 TGI LC50 […]
a GI50 and LC50 are the mean concentrations required to inhibit the growth and kill 50 % of the cells over the total NCI 60 cell line panel in the assay respectively. […]
over the total NCI 60 cell line panel.

[6] = system: microtubule network of MCF-7 cells; test: Immunofluorescence microscopy; assay type: cell-based, human; settings: 1 μM, 16 h
Method: Confocal microscopy was used to study the effects of drug treatment on MCF-7 cytoskeleton. For immunofluorescence, MCF-7 cells were seeded at 1 × 10^5 cells/mL on eight chamber glass slides (BD Biosciences, 2350 Qume Dr, San Jose, CA, USA). Cells were either untreated or treated with vehicle [1% ethanol (v/v)], paclitaxel (1 μM), combretastatin A-4 (100 nM) or compound 7s (100 nM) for 16 h. Following treatment cells were gently washed in PBS, fixed for 20 min with 4% paraformaldehyde in PBS and permeabilised in 0.5% Triton X-100. Following washes in PBS containing 0.1% Tween (PBST), cells were blocked in 5% bovine serum albumin diluted in PBST. Cells were then incubated with mouse monoclonal anti-α-tubulin−FITC antibody (clone DM1A) (Sigma-Aldrich, 2033 Westport Center Dr, St. Louis, MO, USA) (1:100) for 2 h at room temperature. Following washes in PBST, cells were incubated with Alexa Fluor 488 dye (1:450) for 1 h at room temperature. Following washes in PBST, the cells were mounted in Ultra Cruz Mounting Media (Santa Cruz Biotechnology Inc., 10410 Finnell Street, Dallas, TX, USA) containing 4,6-diamino-2-phenolindol dihydrochloride (DAPI). Images were captured by Leica SP8 confocal microscopy with Leica application suite X software (Leica Microsystems CMS GmbH Am Friedensplatz 3 D-68165 Mannheim, Germany). All images in each experiment were collected on the same day using identical parameters. Experiments were performed on three independent occasions.

T1 sequence (Q6B856 whole entry): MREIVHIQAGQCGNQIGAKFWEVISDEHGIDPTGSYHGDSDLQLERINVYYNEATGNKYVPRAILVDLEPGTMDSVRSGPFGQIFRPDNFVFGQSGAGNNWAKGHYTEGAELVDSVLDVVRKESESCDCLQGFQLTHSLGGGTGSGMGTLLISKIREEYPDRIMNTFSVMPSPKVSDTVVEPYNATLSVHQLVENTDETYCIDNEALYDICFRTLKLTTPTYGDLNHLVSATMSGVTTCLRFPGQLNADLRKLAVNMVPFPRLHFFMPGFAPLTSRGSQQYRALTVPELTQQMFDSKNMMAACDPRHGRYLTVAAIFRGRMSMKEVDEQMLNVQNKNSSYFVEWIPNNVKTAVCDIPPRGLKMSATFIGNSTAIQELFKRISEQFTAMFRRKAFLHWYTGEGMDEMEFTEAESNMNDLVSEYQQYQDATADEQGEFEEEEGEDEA
T1 sequence (P81947 whole entry): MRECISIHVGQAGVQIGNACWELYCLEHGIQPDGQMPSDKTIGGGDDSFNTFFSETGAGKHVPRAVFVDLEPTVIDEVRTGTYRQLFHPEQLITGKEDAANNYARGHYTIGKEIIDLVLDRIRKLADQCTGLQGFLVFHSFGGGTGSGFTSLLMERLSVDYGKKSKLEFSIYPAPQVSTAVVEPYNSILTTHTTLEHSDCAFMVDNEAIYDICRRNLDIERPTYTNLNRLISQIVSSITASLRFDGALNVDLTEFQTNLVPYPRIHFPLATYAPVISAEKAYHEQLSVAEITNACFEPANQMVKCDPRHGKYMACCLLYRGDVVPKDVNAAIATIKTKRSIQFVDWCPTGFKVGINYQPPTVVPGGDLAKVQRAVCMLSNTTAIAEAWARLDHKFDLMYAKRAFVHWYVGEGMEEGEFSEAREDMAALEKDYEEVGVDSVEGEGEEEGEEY

Row | Compound | IC50 [1] [µM] | IC50 [2] [µM] | cytotoxicity at 10 µM [3] [%] | also measured
1 | C=CC1C(=O)N(c2cc(OC)c(OC)c(OC)c2)C1c1ccc(Cl)cc1 (centres unmarked) [Compound 7b, 4-(4-Chlorophenyl)-1-(3,4,5-trimethoxyphenyl)-3-vinylazetidin-2-one] | 0.69 ± 0.11 | 0.191 ± 0.016 | – | melting point: 104 °C
2 | C=CC1C(=O)N(c2cc(OC)c(OC)c(OC)c2)C1c1ccc([N+](=O)[O-])cc1 (centres unmarked) [Compound 7d, 4-(4-Nitrophenyl)-1-(3,4,5-trimethoxyphenyl)-3-vinylazetidin-2-one] | 3.83 ± 0.53 | – | 7.2 | –
3 | C=CC1C(=O)N(c2cc(OC)c(OC)c(OC)c2)C1c1ccc(OCC)cc1 (centres unmarked) [Compound 7i, 4-(4-Ethoxyphenyl)-1-(3,4,5-trimethoxyphenyl)-3-vinylazetidin-2-one] | 0.037 ± 0.0033 | 0.061 ± 0.007 | 8.5 | vmax of tubulin polymerization [4]: 3.84 mOD/min; fold reduction in vmax of tubulin polymerization ([4]; with reference to ethanol control): 2.19 fold
4 | C=CC1C(=O)N(c2cc(OC)c(OC)c(OC)c2)C1c1ccc2ccccc2c1 (centres unmarked) [Compound 7n, 4-Naphthalen-2-yl-1-(3,4,5-trimethoxyphenyl)-3-vinylazetidin-2-one] | 0.068 ± 0.01 | 0.077 ± 0.009 | – | melting point: 145 to 146 °C
5 | C=CC1C(=O)N(c2cc(OC)c(OC)c(OC)c2)C1c1ccc(C#N)cc1 (centres unmarked) [Compound 7q, 4-[4-Oxo-1-(3,4,5-trimethoxyphenyl)-3-vinyl-azetidin-2-yl]benzonitrile] | 6.25 ± 5.05 | – | 4.5 | –
6 | C=CC1C(=O)N(c2cc(OC)c(OC)c(OC)c2)C1c1ccc(SC)cc1 (centres unmarked) [Compound 7r, 4-(4-Methylsulfanylphenyl)-1-(3,4,5-trimethoxyphenyl)-3-vinylazetidin-2-one] | 0.051 ± 0.001 | – | 4.5 | –
7 | C=CC1C(=O)N(c2cc(OC)cc(OC)c2)C1c1ccc(OC)cc1 (centres unmarked) [Compound 7u, 1-(3,5-Dimethoxyphenyl)-4-(4-methoxyphenyl)-3-vinylazetidin-2-one] | 0.17 ± 0.07 | – | 3.5 | –
8 | COc1ccc(C2C(C(C)(C)O)C(=O)N2c2cc(OC)c(OC)c(OC)c2)cc1O (centres unmarked) [Compound 10d, 4-(3-Hydroxy-4-methoxyphenyl)-3-(1-hydroxy-1-methylethyl)-1-(3,4,5-trimethoxy-phenyl)azetidin-2-one] | 0.544 ± 0.31 | – | 9.8 | –
9 | COc1ccc(C2C(C(O)C=Cc3ccccc3)C(=O)N2c2cc(OC)c(OC)c(OC)c2)cc1O (centres unmarked) [Compound 10f, 4-(3-Hydroxy-4-methoxy-phenyl)-3-(1-hydroxy-3-phenyl-allyl)-1-(3,4,5-trimethoxy-phenyl)-azetidin-2-one] | 0.046 ± 0.041 | – | 7.6 | –
10 | CC=C1C(=O)N(c2cc(OC)c(OC)c(OC)c2)C1c1ccc(OC)c(O)c1 (centres unmarked) [Compound 12, 3-Ethylidene-4-(3-hydroxy-4-methoxy-phenyl)-1-(3,4,5-trimethoxy-phenyl)-azetidin-2-one] | 0.502 ± 0.212 | – | 8.4 | –
11 | COc1ccc(C2CC(=O)N2c2cc(OC)c(OC)c(OC)c2)cc1OP(=O)(O)O (centres unmarked) [Compound 17a, 2-Methoxy-5-(1-(3,4,5-trimethoxyphenyl)-4-oxoazetidin-2-yl)phenyl dihydrogen phosphate] | 0.022 ± 0.0015 | 0.03 ± 0.004 | – | TGI (mean) [5]: 39.8 µM; GI50 ([5]; read-out: GI50 (mean)): 0.141 µM; CC50 ([5]; read-out: LC50 (mean)): 87.1 µM
12 | CC(=O)O[C@H]1C(=O)[C@@]2(C)[C@H]([C@H](OC(=O)c3ccccc3)[C@]3(O)C[C@H](OC(=O)[C@H](O)[C@@H](NC(=O)c4ccccc4)c4ccccc4)C(C)=C1C3(C)C)[C@]1(OC(C)=O)CO[C@@H]1C[C@@H]2O [paclitaxel, reference compound] | – | – | – | vmax of tubulin polymerization [4]: 89.4 mOD/min; effect on microtubule network [6]: Formation of microtubule bundles and pseudo asters
